Data published in ChEMBL document CHEMBL5528067, “From Synergy to Monotherapy: Discovery of Novel 2,4,6-Trisubstituted Triazine Hydrazone Derivatives with Potent Antifungal Potency In Vitro and In Vivo” (J Med Chem, 2024).
In brackets after ≈: the same amount, converted by molar mass.

Experiments:
Assay type in all cases: functional
[1] = test system: Pichia kudriavzevii; assay: Antifungal activity against Candida krusei 4996 assessed as growth inhibition measured after 48 hrs incubation by CLSI based micro-dilution broth method
[2] = test system: Nakaseomyces glabratus; assay: Antifungal activity against Candida glabrata 537 assessed as growth inhibition measured after 48 hrs incubation by CLSI based micro-dilution broth method
[3] = test system: Candida tropicalis; assay: Antifungal activity against Candida tropicalis 8915 assessed as growth inhibition measured after 48 hrs incubation by CLSI based micro-dilution broth method
[4] = test system: Cryptococcus neoformans; assay: Antifungal activity against Cryptococcus neoformans 32609 assessed as growth inhibition measured after 48 hrs incubation by CLSI based micro-dilution broth method
[5] = test system: Candida parapsilosis; assay: Antifungal activity against Candida parapsilosis 22019 assessed as growth inhibition measured after 48 hrs incubation by CLSI based micro-dilution broth method; conditions: Lodderomyces parapsilosis
[6] = test system: Candida albicans; assay: Antifungal activity against FCZ-resistant Candida albicans SC5314 assessed as growth inhibition measured after 48 hrs incubation by CLSI based micro-dilution broth method
[7] = test system: [Candida] auris; assay: Antifungal activity against FCZ-resistant Candida auris 918 assessed as growth inhibition measured after 48 hrs incubation by CLSI based micro-dilution broth method; conditions: Candidozyma auris
[8] = test system: [Candida] auris; assay: Antifungal activity against FCZ-resistant Candida auris 919 assessed as growth inhibition measured after 48 hrs incubation by CLSI based micro-dilution broth method; conditions: Candidozyma auris
[9] = test system: Candida albicans; assay: Antifungal activity against FCZ-resistant Candida albicans 10231 assessed as growth inhibition measured after 48 hrs incubation by CLSI based micro-dilution broth method
[10] = test system: Candida albicans; assay: Synergistic antifungal activity against FCZ-resistant Candida albicans strain 901 assessed as fractional inhibitory concentration index measured after 48 hrs in presence of FCZ by CLSI based micro-dilution broth method
[11] = test system: Candida albicans; assay: Antifungal activity against FCZ-resistant Candida albicans strain 901 assessed as growth inhibition in presence of fluconazole measured after 48 hrs incubation by CLSI based micro-dilution broth method
[12] = test system: Candida albicans; assay: Antifungal activity against FCZ-resistant Candida albicans strain 904 assessed as growth inhibition in presence of fluconazole measured after 48 hrs incubation by CLSI based micro-dilution broth method
[13] = test system: Candida albicans; assay: Antifungal activity against FCZ-resistant Candida albicans strain 901 assessed as growth inhibition measured after 48 hrs incubation by CLSI based micro-dilution broth method
[14] = test system: Candida albicans; assay: Antifungal activity against FCZ-resistant Candida albicans strain 904 assessed as growth inhibition measured after 48 hrs incubation by CLSI based micro-dilution broth method
[15] = test system: Candida albicans; assay: Synergistic antifungal activity against FCZ-resistant Candida albicans strain 904 assessed as fractional inhibitory concentration index measured after 48 hrs in presence of FCZ by CLSI based micro-dilution broth method

Row | Compound | MIC80 [1] [µg/mL] | MIC80 [2] [µg/mL] | MIC80 [3] [µg/mL] | MIC80 [4] [µg/mL] | MIC80 [5] [µg/mL] | MIC80 [6] [µg/mL] | MIC80 [7] [µg/mL] | MIC80 [8] [µg/mL] | MIC80 [9] [µg/mL] | fractional inhibitory concentration index (FICI) [10] | MIC80 [11] [µg/mL] | MIC80 [12] [µg/mL] | MIC80 [13] [µg/mL] | MIC80 [14] [µg/mL] | fractional inhibitory concentration index (FICI) [15]
1 | O=[N+]([O-])c1ccc(O)c(/C=N/Nc2nc(NCc3ccc(F)cc3)nc(Nc3ccc(F)cc3)n2)c1 | 1 (≈ 2.03 µM) | 0.5 (≈ 1.02 µM) | 2 (≈ 4.06 µM) | 2 (≈ 4.06 µM) | 8 (≈ 16.2 µM) | 2 (≈ 4.06 µM) | 8 (≈ 16.2 µM) | 32 (≈ 65 µM) | 8 (≈ 16.2 µM) | – | – | – | – | – | –
2 | O=[N+]([O-])c1ccc(O)c(/C=N/Nc2nc(NCc3ccc(F)cc3)nc(N3CCOCC3)n2)c1 | 2 (≈ 4.27 µM) | 1 (≈ 2.13 µM) | 4 (≈ 8.54 µM) | 4 (≈ 8.54 µM) | 32 (≈ 68.3 µM) | 4 (≈ 8.54 µM) | > 64 | > 64 | 16 (≈ 34.2 µM) | – | – | – | – | – | –
3 | O=[N+]([O-])c1ccc(O)c(/C=N/Nc2nc(NCc3ccc(F)cc3)nc(NCC3CCCCC3)n2)c1 | 1 (≈ 2.02 µM) | 1 (≈ 2.02 µM) | 2 (≈ 4.04 µM) | 2 (≈ 4.04 µM) | 2 (≈ 4.04 µM) | 2 (≈ 4.04 µM) | 4 (≈ 8.09 µM) | 8 (≈ 16.2 µM) | 16 (≈ 32.4 µM) | – | – | – | – | – | –
4 | O=[N+]([O-])c1ccc(O)c(/C=N/Nc2nc(NCc3ccccc3)nc(NCc3ccc(F)cc3)n2)c1 | 1 (≈ 2.05 µM) | 0.5 (≈ 1.02 µM) | 2 (≈ 4.09 µM) | 2 (≈ 4.09 µM) | 4 (≈ 8.19 µM) | 2 (≈ 4.09 µM) | 4 (≈ 8.19 µM) | 16 (≈ 32.8 µM) | 8 (≈ 16.4 µM) | – | – | – | – | – | –
5 | O=[N+]([O-])c1ccc(/C=N/Nc2nc(NCc3ccc(F)cc3)nc(NCc3ccc(F)cc3)n2)c(O)c1 | > 64 | 2 (≈ 3.95 µM) | > 64 | > 64 | > 64 | > 64 | > 64 | > 64 | > 64 | 0.38 | 0.5 | 0.5 | 2 (≈ 3.95 µM) | 2 (≈ 3.95 µM) | 0.38
6 | COc1ccc(Nc2nc(NCc3ccc(F)cc3)nc(N/N=C/c3cc([N+](=O)[O-])ccc3O)n2)cc1 | 1 (≈ 1.98 µM) | 0.5 (≈ 0.991 µM) | 2 (≈ 3.96 µM) | 2 (≈ 3.96 µM) | 8 (≈ 15.9 µM) | 2 (≈ 3.96 µM) | 32 (≈ 63.4 µM) | 32 (≈ 63.4 µM) | 16 (≈ 31.7 µM) | – | – | – | – | – | –
7 | O=[N+]([O-])c1ccc(O)c(/C=N/Nc2nc(N3CCOCC3)nc(N3CCOCC3)n2)c1 | > 64 | > 64 | > 64 | > 64 | > 64 | > 64 | > 64 | > 64 | > 64 | – | – | – | – | – | –
8 | O=[N+]([O-])c1ccc(O)c(/C=N/Nc2nc(NCc3ccc(F)cc3)nc(NCc3ccco3)n2)c1 | 1 (≈ 2.09 µM) | 1 (≈ 2.09 µM) | 2 (≈ 4.18 µM) | 2 (≈ 4.18 µM) | 2 (≈ 4.18 µM) | 2 (≈ 4.18 µM) | 2 (≈ 4.18 µM) | 4 (≈ 8.36 µM) | 8 (≈ 16.7 µM) | – | – | – | – | – | –
9 | O=[N+]([O-])c1ccc(O)c(/C=N/Nc2nc(NCc3ccco3)nc(NCc3ccco3)n2)c1 | 1 (≈ 2.22 µM) | 1 (≈ 2.22 µM) | 2 (≈ 4.44 µM) | 2 (≈ 4.44 µM) | 4 (≈ 8.88 µM) | 2 (≈ 4.44 µM) | 4 (≈ 8.88 µM) | 4 (≈ 8.88 µM) | 8 (≈ 17.8 µM) | – | – | – | – | – | –
10 | Fc1ccc(CNc2nc(NCc3ccc(F)cc3)nc(N/N=C/c3ccc(I)cc3)n2)cc1 | – | – | – | – | – | – | – | – | – | 1.13 | > 64 | > 64 | > 64 | > 64 | 1.13
11 | Oc1ccccc1/C=N/Nc1nc(NCc2ccc(F)cc2)nc(NCc2ccc(F)cc2)n1 | > 64 | 4 (≈ 8.67 µM) | > 64 | 8 (≈ 17.3 µM) | 8 (≈ 17.3 µM) | > 64 | > 64 | > 64 | > 64 | 0.25 | 0.5 | 0.5 | 4 (≈ 8.67 µM) | 4 (≈ 8.67 µM) | 0.25
12 | O=[N+]([O-])c1cc(O)ccc1/C=N/Nc1nc(NCc2ccc(F)cc2)nc(NCc2ccc(F)cc2)n1 | – | – | – | – | – | – | – | – | – | 0.16 | 2 | 2 | > 64 | > 64 | 0.16
13 | O=[N+]([O-])c1ccccc1/C=N/Nc1nc(NCc2ccc(F)cc2)nc(NCc2ccc(F)cc2)n1 | – | – | – | – | – | – | – | – | – | 1.13 | > 64 | > 64 | > 64 | > 64 | 1.13
14 | COc1ccc(Nc2nc(N/N=C/c3cc([N+](=O)[O-])ccc3O)nc(Nc3ccc(OC)cc3)n2)cc1 | 1 (≈ 1.99 µM) | 2 (≈ 3.98 µM) | 4 (≈ 7.96 µM) | 2 (≈ 3.98 µM) | > 64 | 2 (≈ 3.98 µM) | > 64 | > 64 | 16 (≈ 31.8 µM) | – | – | – | – | – | –
15 | COc1ccc(Nc2nc(NCc3ccco3)nc(N/N=C/c3cc([N+](=O)[O-])ccc3O)n2)cc1 | 1 (≈ 2.1 µM) | 0.5 (≈ 1.05 µM) | 4 (≈ 8.4 µM) | 2 (≈ 4.2 µM) | 4 (≈ 8.4 µM) | 2 (≈ 4.2 µM) | 8 (≈ 16.8 µM) | 8 (≈ 16.8 µM) | 8 (≈ 16.8 µM) | – | – | – | – | – | –
16 | Fc1ccc(CNc2nc(NCc3ccc(F)cc3)nc(N/N=C/c3ccccc3)n2)cc1 | – | – | – | – | – | – | – | – | – | 1.13 | > 64 | > 64 | > 64 | > 64 | 1.13
17 | O=[N+]([O-])c1cc(/C=N/Nc2nc(NCc3ccc(F)cc3)nc(NCc3ccc(F)cc3)n2)ccc1O | – | – | – | – | – | – | – | – | – | 0.25 | 8 | 4 | > 64 | > 64 | 0.19
18 | O=[N+]([O-])c1cc(O)cc(/C=N/Nc2nc(NCc3ccc(F)cc3)nc(NCc3ccc(F)cc3)n2)c1 | – | – | – | – | – | – | – | – | – | 0.25 | 8 | 4 | > 64 | > 64 | 0.19
19 | Fc1ccc(CNc2nc(NCc3ccc(F)cc3)nc(N/N=C/c3ccc(Cl)cc3)n2)cc1 | – | – | – | – | – | – | – | – | – | 1.13 | > 64 | > 64 | > 64 | > 64 | 1.13
